# Test results taken from patent US9302999B2, “Substituted triazoles as herbicides” (E. I. DU PONT DE NEMOURS AND COMPANY, priority 2012, dated 2016).
# What was measured:
# Format in all cases: in vivo
# [1] = tested on: barnyardgrass (Echinochloa crus-galli); assay: Test A pre-/postemergence: barnyardgrass
# Summary of the method: (§1)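 Whole-plant greenhouse assay in loam/sand. Preemergence directed soil spray plus simultaneous postemergence spray (one- to two-leaf stage, 2–10 cm). Rated visually ~10 days later, 0 = no effect, 100 = complete control.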
# [2] = tested on: morningglory (Ipomoea spp.); assay: Test A pre-/postemergence: morningglory
# Summary of the method: as §1
# [3] = tested on: pigweed (Amaranthus retroflexus); assay: Test A pre-/postemergence: pigweed
# Summary of the method: as §1
# [4] = tested on: velvetleaf (Abutilon theophrasti); assay: Test A pre-/postemergence: velvetleaf
# Summary of the method: as §1
# [5] = tested on: wheat (Triticum aestivum); assay: Test A pre-/postemergence: wheat
# Summary of the method: as §1
# [6] = tested on: blackgrass (Alopecurus myosuroides); assay: Test C pre-/postemergence: blackgrass
# Description: (§2) Seeds of plant species selected from blackgrass (Alopecurus myosuroides), bromegrass, downy (downy bromegrass, Bromus tectorum), foxtail, green (green foxtail, Setaria viridis), ryegrass, Italian (Italian ryegrass, Lolium multiflorum), winter wheat (Triticum aestivum), wild oat (Avena fatua), galium (catchweed bedstraw, Galium aparine), bermudagrass (Cynodon dactylon), surinam grass (Brachiaria decumbens), cocklebur (common cocklebur, Xanthium strumarium), corn (Zea mays), large crabgrass (Digitaria sanguinalis), woolly cupgrass (Eriochloa villosa), foxtail, giant (giant foxtail, Setaria faberii), goosegrass (Eleusine indica), johnsongrass (Sorghum halepense), kochia (Kochia scoparia), lambsquarters (Chenopodium album), morningglory (Ipomoea coccinea), nightshade (eastern black nightshade, Solanum ptycanthum), nutsedge, yellow (yellow nutsedge, Cyperus esculentus), pigweed (Amaranthus retroflexus), ragweed (common ragweed, Ambrosia elation), soybean (Glycine max), common (oilseed) sunflower (Helianthus annuus), Russian thistle (Salsola kali) and velvetleaf (Abutilon theophrasti) were planted into a blend of loam soil and sand and treated preemergence with test chemicals formulated in a non-phytotoxic solvent mixture which included a surfactant.
# (§3) At the same time, plants selected from these crop and weed species and also barley (winter barley, Hordeum vulgare), canarygrass (Phalaris minor), chickweed (common chickweed, Stellaria media) windgrass (Apera spica-venti) and deadnettle (henbit deadnettle, Lamium amplexicaule) were planted in pots containing Redi-Earth® planting medium (Scotts Company, 14111 Scottslawn Road, Marysville, Ohio 43041) comprising spaghnum peat moss, vermiculite, wetting agent and starter nutrients and treated with postemergence applications of test chemicals formulated in the same manner. Plants ranged in height from 2 to 18 cm (1- to 4-leaf stage) for postemergence treatments.
# (§4) Treated plants and controls were maintained in a greenhouse for 13 to 15 days, after which time all species were compared to controls and visually evaluated. Plant response ratings, summarized in Table C, are based on a scale of 0 to 100 where 0 is no effect and 100 is complete control. A dash (-) response means no test result.
# [7] = tested on: ryegrass, Italian (Italian ryegrass, Lolium multiflorum); assay: Test C pre-/postemergence: ryegrass, Italian
# Description: as §2, §3, §4
# [8] = tested on: lambsquarters (Chenopodium album); assay: Test C pre-/postemergence: lambsquarters
# Description: as §2, §3, §4
# [9] = tested on: morningglory (Ipomoea coccinea); assay: Test C pre-/postemergence: morningglory
# Description: as §2, §3, §4
# [10] = tested on: nutsedge, yellow (yellow nutsedge, Cyperus esculentus); assay: Test C pre-/postemergence: nutsedge, yellow
# Description: as §2, §3, §4
# [11] = tested on: chickweed (common chickweed, Stellaria media); assay: Test C postemergence: chickweed
# Description: as §3, §4
# corn (Zea mays) = assay: Test C pre-/postemergence: corn; conditions: Preemergence
# Description: as §2, §3, §4
# [12] = Postemergence, 125 g ai/ha, 0 to 100 scale, 0 is no effect, 100 is complete control
# [13] = Postemergence, 500 g ai/ha, visual rating on 0 to 100 scale (0 no effect, 100 complete control), approximately ten days
# [14] = Preemergence, 125 g ai/ha, 0 to 100 scale where 0 is no effect and 100 is complete control
# [15] = Preemergence, 500 g ai/ha, 0 to 100 scale (0 no effect, 100 complete control)
# [16] = Postemergence, 31 g ai/ha, scale 0 to 100 (0 no effect, 100 complete control)
# [17] = Postemergence, 62 g ai/ha, scale 0 to 100 (0 no effect, 100 complete control)
# [18] = Postemergence, 125 g ai/ha, scale 0 to 100, 0 no effect, 100 complete control
# [19] = Postemergence, 250 g ai/ha, scale 0 to 100
# [20] = 125 g ai/ha, scale 0 to 100, 0 no effect, 100 complete control
# [21] = Preemergence, 31 g ai/ha, scale of 0 to 100, 0 is no effect, 100 is complete control
# [22] = Preemergence, 62 g ai/ha, scale of 0 to 100, 0 is no effect, 100 is complete control
# [23] = Preemergence, 125 g ai/ha, scale 0 to 100, 0 no effect, 100 complete control
# [24] = Preemergence, 250 g ai/ha, scale 0 to 100, 0 no effect, 100 complete control
# [25] = 62 g ai/ha, scale of 0 to 100, 0 is no effect, 100 is complete control
# [26] = Postemergence, 500 g ai/ha, 0 to 100 scale, 0 is no effect, 100 is complete control
# [27] = Preemergence, 16 g ai/ha, scale 0 (no effect) to 100 (complete control)
# [28] = Preemergence, 31 g ai/ha, scale 0 (no effect) to 100 (complete control)
structure (smiles),measurement,setting,value
Cc1nn(-c2ccnc(C(F)(F)F)c2)nc1Cc1ccnc(C(F)(F)F)c1 [Compound 137],Barnyardgrass plant response rating,[1]; [12],70
same,Barnyardgrass plant response rating,[1]; [13],90
same,"Plant response rating, Barnyardgrass",[1]; [14],50
same,"Plant response rating, Barnyardgrass",[1]; [15],70
same,"Plant response rating, Morningglory",[2]; [12],80
same,Morningglory plant response rating,[2]; [13],100
same,"Plant response rating, Morningglory",[2]; [14],40
same,"Plant response rating, Morningglory",[2]; [15],60
same,"Plant response rating, Pigweed",[3]; [12],100
same,Pigweed plant response rating,[3]; [13],100
same,"Plant response rating, Pigweed",[3]; [14],100
same,"Plant response rating, Pigweed",[3]; [15],100
same,"Plant response rating, Velvetleaf",[4]; [12],80
same,Velvetleaf plant response rating,[4]; [13],100
same,"Plant response rating, Velvetleaf",[4]; [14],20
same,"Plant response rating, Velvetleaf",[4]; [15],20
same,"Plant response rating, Wheat",[5]; [12],20
same,Wheat plant response rating,[5]; [13],30
same,"Plant response rating, Wheat",[5]; [14],0
same,"Plant response rating, Wheat",[5]; [15],0
same,"Plant response rating, Blackgrass",[6]; [16],10
same,"Plant response rating, Blackgrass",[6]; [17],30
same,"Plant response rating, Blackgrass",[6]; [18],35
same,"Plant response rating, Blackgrass",[6]; [19],60
same,"Plant response rating, Ryegrass, Italian",[7]; [16],35
same,"Plant response rating, Ryegrass, Italian",[7]; [17],55
same,"Plant response rating, Ryegrass, Italian",[7]; [18],65
same,"Plant response rating, Ryegrass, Italian",[7]; [19],90
same,"Plant response rating, Lambsquarters",[8]; [16],100
same,"Plant response rating, Lambsquarters",[8]; [17],100
same,"Plant response rating, Lambsquarters",[8]; [18],100
same,"Plant response rating, Lambsquarters",[8]; [19],100
same,"Plant response rating, Morningglory",[9]; [17],60
same,"Plant response rating, Morningglory",[9]; [18],80
same,"Plant response rating, Morningglory",[9]; [19],90
same,"Plant response rating, Nutsedge, Yellow",[10]; [16],5
same,"Plant response rating, Nutsedge, Yellow",[10]; [17],10
same,"Plant response rating, Nutsedge, Yellow",[10]; [18],10
same,"Plant response rating, Nutsedge, Yellow",[10]; [19],15
same,"Plant response rating, Chickweed","[11]; 31 g ai/ha, scale 0 to 100 (0 no effect, 100 complete control)",70
same,"Plant response rating, Chickweed","[11]; 62 g ai/ha, scale 0 to 100 (0 no effect, 100 complete control)",80
same,"Plant response rating, Chickweed",[11]; [20],98
same,"Plant response rating, Chickweed","[11]; 250 g ai/ha, scale 0 to 100",98
Cc1nn(-c2ccc(F)c(C(F)(F)F)c2)nc1Oc1ccnc(C(F)(F)F)c1 [Compound 147],Barnyardgrass plant response rating,[1]; [12],80
same,Barnyardgrass plant response rating,[1]; [13],80
same,"Plant response rating, Barnyardgrass",[1]; [14],90
same,"Plant response rating, Barnyardgrass",[1]; [15],100
same,"Plant response rating, Morningglory",[2]; [12],90
same,Morningglory plant response rating,[2]; [13],90
same,"Plant response rating, Morningglory",[2]; [15],80
same,"Plant response rating, Pigweed",[3]; [12],100
same,Pigweed plant response rating,[3]; [13],100
same,"Plant response rating, Pigweed",[3]; [14],100
same,"Plant response rating, Pigweed",[3]; [15],100
same,"Plant response rating, Velvetleaf",[4]; [12],50
same,Velvetleaf plant response rating,[4]; [13],90
same,"Plant response rating, Velvetleaf",[4]; [14],20
same,"Plant response rating, Velvetleaf",[4]; [15],50
same,"Plant response rating, Wheat",[5]; [12],20
same,Wheat plant response rating,[5]; [13],50
same,"Plant response rating, Wheat",[5]; [14],30
same,"Plant response rating, Wheat",[5]; [15],50
same,"Plant response rating, Blackgrass",[6]; [21],50
same,"Plant response rating, Blackgrass",[6]; [22],85
same,"Plant response rating, Blackgrass",[6]; [23],90
same,"Plant response rating, Blackgrass",[6]; [24],90
same,"Plant response rating, Ryegrass, Italian",[7]; [21],10
same,"Plant response rating, Ryegrass, Italian",[7]; [22],50
same,"Plant response rating, Ryegrass, Italian",[7]; [23],85
same,"Plant response rating, Ryegrass, Italian",[7]; [24],95
same,"Plant response rating, Corn","corn (Zea mays); 31 g ai/ha, scale of 0 to 100, 0 is no effect, 100 is complete control",10
same,"Plant response rating, Corn",corn (Zea mays); [25],10
same,"Plant response rating, Corn",corn (Zea mays); [20],25
same,"Plant response rating, Corn","corn (Zea mays); 250 g ai/ha, scale 0 to 100, 0 no effect, 100 complete control",35
same,"Plant response rating, Lambsquarters",[8]; [21],35
same,"Plant response rating, Lambsquarters",[8]; [22],45
same,"Plant response rating, Lambsquarters",[8]; [23],80
same,"Plant response rating, Lambsquarters",[8]; [24],80
same,"Plant response rating, Morningglory",[9]; [21],30
same,"Plant response rating, Morningglory",[9]; [22],30
same,"Plant response rating, Morningglory",[9]; [24],35
same,"Plant response rating, Nutsedge, Yellow",[10]; [21],0
same,"Plant response rating, Nutsedge, Yellow",[10]; [22],0
same,"Plant response rating, Nutsedge, Yellow",[10]; [23],0
same,"Plant response rating, Nutsedge, Yellow",[10]; [24],15
CCOc1nn(-c2ccc(Br)cc2)nc1Cc1ccnc(C(F)(F)F)c1 [Compound 189],"Plant response rating, Barnyardgrass",[1]; [12],60
same,Barnyardgrass plant response rating,[1]; [26],80
same,"Plant response rating, Barnyardgrass",[1]; [14],80
same,"Plant response rating, Barnyardgrass",[1]; [15],90
same,"Plant response rating, Morningglory",[2]; [12],60
same,Morningglory plant response rating,[2]; [26],80
same,"Plant response rating, Morningglory",[2]; [14],20
same,"Plant response rating, Morningglory",[2]; [15],30
same,"Plant response rating, Pigweed",[3]; [12],100
same,Pigweed plant response rating,[3]; [26],100
same,"Plant response rating, Pigweed",[3]; [14],100
same,"Plant response rating, Pigweed",[3]; [15],100
same,"Plant response rating, Velvetleaf",[4]; [12],70
same,Velvetleaf plant response rating,[4]; [26],90
same,"Plant response rating, Velvetleaf",[4]; [14],20
same,"Plant response rating, Velvetleaf",[4]; [15],60
same,"Plant response rating, Wheat",[5]; [12],50
same,Wheat plant response rating,[5]; [26],60
same,"Plant response rating, Wheat",[5]; [14],20
same,"Plant response rating, Wheat",[5]; [15],50
same,"Plant response rating, Blackgrass",[6]; [27],75
same,"Plant response rating, Blackgrass",[6]; [28],90
same,"Plant response rating, Blackgrass",[6]; [22],100
same,"Plant response rating, Blackgrass",[6]; [23],100
same,"Plant response rating, Ryegrass, Italian",[7]; [27],50
same,"Plant response rating, Ryegrass, Italian",[7]; [28],60
same,"Plant response rating, Ryegrass, Italian",[7]; [22],85
same,"Plant response rating, Ryegrass, Italian",[7]; [23],100
same,"Plant response rating, Corn","corn (Zea mays); 16 g ai/ha, scale 0 (no effect) to 100 (complete control)",5
same,"Plant response rating, Corn","corn (Zea mays); 31 g ai/ha, scale 0 (no effect) to 100 (complete control)",5
same,"Plant response rating, Corn",corn (Zea mays); [25],15
same,"Plant response rating, Corn",corn (Zea mays); [20],20
same,"Plant response rating, Lambsquarters",[8]; [27],45
same,"Plant response rating, Lambsquarters",[8]; [28],85
same,"Plant response rating, Lambsquarters",[8]; [22],90
same,"Plant response rating, Lambsquarters",[8]; [23],90
same,"Plant response rating, Morningglory",[9]; [28],10
same,"Plant response rating, Morningglory",[9]; [22],40
same,"Plant response rating, Morningglory",[9]; [23],60
same,"Plant response rating, Nutsedge, Yellow",[10]; [27],0
same,"Plant response rating, Nutsedge, Yellow",[10]; [28],0
same,"Plant response rating, Nutsedge, Yellow",[10]; [22],0
same,"Plant response rating, Nutsedge, Yellow",[10]; [23],0
